Tests used:
[1] = treatment of certain blood cancers; background statement; cited from earlier work
Text: RGS2 is rapidly and constitutively degraded by the ubiquitin–proteasomal system ([12], [13]). Dysfunction of this crucial system can lead to accumulation of misfolded or aged proteins, cell cycle arrest, and uncontrolled cell proliferation ([14], [15], [16], [17]), driving various pathologies, including multiple cancers and cardiovascular disease ([18], [19]). Proteasome inhibitors, such as bortezomib (Velcade) and carfilzomib, are used in the treatment of certain blood cancers ([20], [21]). However, the severe side effects associated with these drugs, including neuropathies, fatigue, and anem ...

HEK-293T cells = experiment: RGS2 protein levels, baseline and with proteasome inhibitor MG-132; format: cell-based, human; conditions: Fig. S4, five or six independent experiments; for basal RGS2 protein expression versus RGS2^WT (Fig. S4): no MG-132; for change of RGS2 protein levels with MG-132 (Fig. S4): MG-132 10 μM, 4 h
Text: Representative Western blot and quantification of three independent experiments. […] Representative Western blot and quantification of three independent experiments. Representative Western blot (D), quantification of knockdown efficiency (E), and effects on RGS protein levels (F) when FBXO44 is knocked down using siRNA. […] Result of three independent experiments. ∗p < 0.05; ∗∗p < 0.01; ∗∗∗p < 0.001 using two-way ANOVA followed by Tukey's post hoc test for pairwise comparisons (C, E, and F). FBXO44, F-box only protein 44; HEK-293T, human embryonic kidney-293T cell line; RGS2, regulator of G protein signaling 2.
Cells were harvested on ice in lysis buffer containing protease inhibitors (50 mM Tris–HCl [pH 7.4], 5 mM NaCl, 0.5 mM EDTA, 1% Triton X-100, 10% cOmplete Protease Inhibitor Cocktail EDTA-free). Lysates were bath sonicated for 10 min at 4 °C, centrifuged at 6000g for 3 min, and the supernatant was used for SDS-PAGE and immunoblotting. Total protein concentration was determined using the Pierce BCA Protein Assay Kit. Samples were diluted to 1 μg/μl in protein sample loading buffer (Li-Cor Biosciences).
Equal amounts of protein in each lane were resolved on a 12% SDS-PAGE gel for 1 h at 160 V. Samples were transferred to an Immobilon-FL PVDF membrane (Millipore) and subjected to Western immunoblot analysis using Li-Cor blocking buffer for both blocking and antibody diluents. Membranes were blocked for 1 h, then incubated for 2 h in primary antibodies as described under “Antibodies,” and finally incubated for 1 h with IRDye secondary antibodies directed at the species of the primary antibody. Following each antibody incubation, membranes were washed four times in PBS with 0.1% Tween-20. Membranes were imaged using an Azure600 imaging system (Azure Biosystems).
Figure S4. Effect of RGS2 mutations on protein stability. Representative western blot and quantification of five or six independent experiments (varies by mutation). The proteasome inhibitor MG-132 (10 μM, 4 h) […]
P15R were predicted to destabilize RGS2, due to increased binding to FBXO44 in the peptide microarray. […]
significant. *P<0.05; ***P<0.001 using two-way ANOVA followed by Tukey’s post hoc test for pairwise

FBXO44^FBA [2] = target: T1, FBXO44^FBA (Homo sapiens, UniProt Q9H4M3); experiment: Peptide microarray (PEPperPRINT), FLAG-FBXO44^FBA binding; conditions: 2 μg/ml FBXO44^FBA overnight at 4 °C; for Mean % difference from parent peptide (FLAG immunoreactivity): Table S1, RGS2^5–16 single-residue substitution, PBS 0.005% Tween pH 7.4, anti-FLAG DyLight800 fluorescence, three independent experiments with three technical replicates each; for FBXO44^FBA binding in peptide microarray (in words): versus parent RGS2^5–16 peptide, fluorescence
T1 construct: we expressed and purified only this domain for all in vitro studies; 6xHis (N, cleaved yes); MBP (N, cleaved yes); made in house; host or cells: Escherichia coli Rosetta BL21 (λDE3)
T1 sequence (Q9H4M3 71-252 limits assumed): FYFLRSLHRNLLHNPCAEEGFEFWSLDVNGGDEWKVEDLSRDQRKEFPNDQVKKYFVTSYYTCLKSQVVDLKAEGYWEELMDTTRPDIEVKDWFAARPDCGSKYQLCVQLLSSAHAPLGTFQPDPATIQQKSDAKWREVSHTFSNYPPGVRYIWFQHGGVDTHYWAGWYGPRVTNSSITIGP
Text: To do so, we utilized a custom peptide microarray (PEPperPRINT GmbH). The design of this array was twofold: (1) substitution at each position with every other natural eukaryotic amino acid; (2) truncation of the peptide from the C terminus. We assessed the binding of FLAG-FBXO44^FBA to the array utilizing fluorescence immunoreactivity corresponding to the amount of FLAG-FBXO44^FBA bound. […] Substitutions at Asp^12 were not only tolerated but also seemed to improve binding in every case (Fig. 3B). This, combined with the fact that substituting any residue in His^11–Met^16 with Arg, and in most cases with Lys, improved FBXO44^FBA binding, indicating the presence of negative charges at the binding interface.
Figure 2 Systematic mutation of the RGS2 degron alters FBXO44^FBA binding. A custom microarray (PEPperPRINT) was designed where each position of the RGS2^5–16 peptide was substituted for each natural amino acid. We also included truncated peptides on the array. This was incubated with purified FBXO44^FBA and probed with α-FLAG. A, a representative scan of a peptide microarray (top) and a truncated peptide (bottom). B, heatmap of mean fluorescence of quantified microarray scans. The scale represents the mean fluorescence in percentage points across all replicates, normalized to the signal obtained with the original residue at each position. C, heatmap of standard deviation of quantified microarray scans. The scale represents the standard deviation in percentage points across all replicates. […] Residues are color-coded based on properties: blue, positive charge; red, negative charge; orange, uncharged polar; green, hydrophobic; yellow, Cys (C); bright green, Pro (P); and black, Gly (G). […] Results of three independent experiments with three technical replicates each. For a statistical significance summary, see Table S1. FBXO44, F-box only protein 44; RGS2, regulator of G protein signaling 2.
Figure 3 Effects of RGS2^5–16 peptide residue changes on FBXO44^FBA binding. Data are presented as % FLAG immunoreactivity, as compared with the parent peptide residue. […] The original residue is marked in each graph with a vertical dotted line. Boxes extend from the 25th to 75th percentile with a line marking the median. Whiskers extend to the minimum and maximum. Results of three independent experiments with three technical replicates each. Data were analyzed by two-way ANOVA, with Tukey's post hoc test for pairwise comparison (simple effect within columns). Statistical significance is summarized in Table S1 and color-coded according to the legend. FBXO44, F-box only protein 44; RGS2, regulator of G protein signaling 2.
The microarray slide was seated into the incubation tray according to PEPperPRINT's instructions. The array well was then incubated in washing buffer (PBS) with 0.005% Tween (Sigma; P1379, pH 7.4) at room temperature for 15 min on an orbital shaker. Washing buffer was aspirated, and the array was then incubated with Rockland blocking buffer at room temperature for 30 min on an orbital shaker. Blocking buffer was then aspirated, and the array was incubated in staining buffer (washing buffer with 10% Rockland blocking buffer) at room temperature for 15 min on an orbital shaker. Staining buffer was aspirated, and purified FBXO44 FBA domain diluted to 2 μg/ml in staining buffer was added. The array was then placed on an orbital shaker overnight at 4 °C. The FBA domain solution was removed, and an array was washed three times with washing buffer. After the third array was incubated in staining buffer for 15 min at 4 °C on an orbital shaker. The array was then incubated with antibody dilution (anti-FLAG DyLight800 and anti-HA DyLight680, both diluted 1:2000 in staining buffer) for 45 min at 4° C on an orbital shaker. The array was then washed three times with washing buffer. […]

FBXO44^FBA [3] = target: T1, FBXO44^FBA; experiment: Dot blot of FLAG-FBXO44^FBA binding to immobilized peptide; conditions: peptide spotted on PVDF at increasing amounts; 2 μg/ml FLAG-FBXO44^FBA overnight at 4 °C; anti-FLAG
Text: However, evidence of a direct interaction between RGS2 and FBXO44 has, until now, not yet been established. Thus, we first aimed to verify that purified FBXO44 would bind the degron sequence in vitro. […] This also circumvented the issue that full-length FBXO44 (as well as all other F-box proteins) is very difficult to express in the absence of an adaptor protein, such as Skp1 ([30]). To test the ability of the FBA domain to bind the RGS2 degron specifically, a peptide corresponding to residues Met^5–Met^16 (MFLAVQHDRCPM; herein referred to as RGS2^5–16; Fig. 1A) was dotted onto a polyvinylidene difluoride (PVDF) membrane at increasing amounts (Fig. 1B). […] The membrane was then incubated with FLAG-tagged FBXO44 FBA domain (FBXO44^FBA) and subjected to immunoblotting using a FLAG antibody. […] To get an estimate of the binding affinity between FBXO44^FBA, we next performed surface plasmon resonance (SPR) with the RGS2^5–16 peptide anchored on the chip and FBXO44^FBA as the analyte.
Figure 1 A peptide representing the degron in RGS2 binds FBXO44^FBAin vitro.A, sequence and schematic of the RGS2^5–16 peptide. B, a representative dot blot showing binding of FBXO44^FBA to immobilized RGS2^5–16 peptide. […] The RU at equilibrium was subtracted from the nonspecific binding detected in Fc1 and measured for each concentration. […]

| Compound | severe side effects [1] | basal RGS2 protein expression versus RGS2^WT (Fig. S4) (HEK-293T cells) | Mean % difference from parent peptide (FLAG immunoreactivity) (FBXO44^FBA [2]) [%] | FBXO44^FBA binding in peptide microarray (in words) (FBXO44^FBA [2]) | FLAG immunoreactivity (FBXO44^FBA binding) (FBXO44^FBA [3]) | change of RGS2 protein levels with MG-132 (Fig. S4) (HEK-293T cells) |
| --- | --- | --- | --- | --- | --- | --- |
| CC(C)C[C@H](NC(=O)[C@H](Cc1ccccc1)NC(=O)c1cnccn1)B(O)O [bortezomib] | neuropathies, fatigue, and anemia | – | – | – | – | – |
| CC(C)C[C@H](NC(=O)[C@H](CCc1ccccc1)NC(=O)CN1CCOCC1)C(=O)N[C@@H](Cc1ccccc1)C(=O)N[C@@H](CC(C)C)C(=O)[C@@]1(C)CO1 [carfilzomib] | neuropathies, fatigue, and anemia | – | – | – | – | – |
| D12R: array RGS2^5–16 peptide, D12 substituted by R (MFLAVQHRCRPM) | – | trend towards decreased expression | 184.9 | enhanced FBXO44^FBA binding | – | – |
| MCKGLAALPAT [RGS4^1–11, peptide corresponding to the first 11 residues in RGS4, negative control] | – | – | – | – | no signal detected | – |
| P15G: array RGS2^5–16 peptide, P15 substituted by G | – | none of these mutations resulted in significant changes in basal expression | -30.63 | decreased binding | – | none of these mutations resulted in significant changes in basal expression or response to MG-132 |
| P15R: array RGS2^5–16 peptide, P15 substituted by R (MFLAVQHDCRRM) | – | none of these mutations resulted in significant changes in basal expression | 158 | enhanced FBXO44^FBA binding | – | none of these mutations resulted in significant changes in basal expression or response to MG-132 |
